The record followed here is patent US11590116B2 (THERAVANCE BIOPHARMA R&D IP, LLC, priority 2019, dated 2023).

Structures are written as SMILES.

The subject of test [1] is TGF-β-stimulated SMAD3 phosphorylation in BEAS-2B cells. In words: Cellular ALK5 potency assay, inhibition of TGF-β stimulated pSMAD3 formation in BEAS-2B cells. The class given is cell-based. As to conditions: Homo sapiens; inhibition of TGF-β stimulated pSMAD3 formation, BEAS-2B cells; read-out: BEAS2B pIC50 (converted). The method in brief:
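BEAS-2B human lung epithelial cells, seeded overnight, were pre-treated with compound in HBSS/25 mM HEPES/1% BSA for 1 h at 37 °C, then stimulated with TGF-β (final 10 ng/mL) for 30 min. Lysates were assayed for pSMAD3 by AlphaLISA; pIC50 came from dose-dependent signal change versus TGF-β-stimulated untreated cells.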

Test [2] deals with T1, recombinant human ALK5 (TGF-βR1) protein (Homo sapiens, UniProt P36897).
T1 construct: purchased Life Technologies PR9075A
T1 sequence (P36897 34-503): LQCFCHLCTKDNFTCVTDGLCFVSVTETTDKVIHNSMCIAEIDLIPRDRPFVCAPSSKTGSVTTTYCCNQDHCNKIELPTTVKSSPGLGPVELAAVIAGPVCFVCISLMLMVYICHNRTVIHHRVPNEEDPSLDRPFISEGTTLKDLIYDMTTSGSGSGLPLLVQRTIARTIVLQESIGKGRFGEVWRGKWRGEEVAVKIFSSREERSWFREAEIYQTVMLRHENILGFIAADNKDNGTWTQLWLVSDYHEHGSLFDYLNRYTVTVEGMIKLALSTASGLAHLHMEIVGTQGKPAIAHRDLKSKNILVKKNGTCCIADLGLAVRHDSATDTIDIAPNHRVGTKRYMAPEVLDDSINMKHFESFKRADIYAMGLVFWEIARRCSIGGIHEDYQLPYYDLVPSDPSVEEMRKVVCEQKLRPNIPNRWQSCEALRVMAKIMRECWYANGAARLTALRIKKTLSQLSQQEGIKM
In words: Biochemical ALK5 (TGF-βR1) assay to measure pKi (LANCE Ultra ULight kinase assay). As to conditions: apparent pKi from pIC50 by Cheng-Prusoff, read-out: ALK5 pKi (converted). The method in brief:
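Dose range 10 μM–25 pM; enzyme + compound 60 min RT; ATP added (5× stock 125 μM, 2 mM DTT); 60 min 37 °C; stop with EDTA + Eu anti-phospho-Topo IIα Thr1342 Ab; TR-FRET ex 320/340, em 665 nm. 4-param pIC50 → pKi (Cheng-Prusoff).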
For orientation: Time-resolved FRET reads energy transfer from a long-lived donor to a nearby acceptor.

Regarding `Cc1cccc(-c2[nH]cnc2-c2ccc3ncc(C4=CC[C@H](NC(=O)[C@@H]5CCCN5)CC4)cc3c2)n1` [Compound 418, (2S)—N-[(1R)-4-[6-[5-(6-methyl-2-pyridyl)-1H-imidazol-4-yl]-3-quinolyl]cyclohex-3-en-1-yl]pyrrolidine-2-carboxamide], in test [1], the IC50 is 25.1 to 158 nM. The Ki in test [2] is 0.0398 to 0.316 nM.
Turning to `Cc1cccc(-c2[nH]cnc2-c2ccc3ncc(-c4csc(C(=O)OC5CCNCC5)c4)cc3c2)n1` [Compound 751, 4-piperidyl 4-[6-[5-(6-methyl-2-pyridyl)-1H-imidazol-4-yl]-3-quinolyl]thiophene-2-carboxylate], the IC50 in test [1] was 25.1 to 158 nM. Also, the Ki in test [2] is less than 0.0316 nM.
Turning to `Cc1cccc(-c2n[nH]cc2-c2ccc3ncc(CCC(=O)O)cc3n2)n1` [Compound 63, 3-[6-[3-(6-methyl-2-pyridyl)-1H-pyrazol-4-yl]-1,5-naphthyridin-3-yl]propanoic acid], the IC50 in test [1] was 1580 to 10000 nM. The Ki in test [2] is 3.98 to 31.6 nM.
As to `CNCCn1cc(-c2cnc3ccc(-c4c(-c5cccc(C)n5)nn5cc(Cl)ccc45)cc3c2)cn1` [Compound 605, 2-[4-[6-[6-chloro-2-(6-methyl-2-pyridyl)pyrazolo[1,5-a]pyridin-3-yl]-3-quinolyl]pyrazol-1-yl]-N-methyl-ethanamine], the IC50 in test [1] is 200 to 1260 nM. Moreover, in test [2], the Ki was 0.0398 to 0.316 nM.
For the compound `Cc1cccc(-c2[nH]cnc2-c2ccc3ncc(-c4nc(C(=O)OCCN5CC[C@@H](N)C5)cs4)cc3c2)n1` [Compound 1246, 2-[(3R)-3-aminopyrrolidin-1-yl]ethyl 2-[6-[5-(6-methyl-2-pyridyl)-1H-imidazol-4-yl]-3-quinolyl]thiazole-4-carboxylate], the IC50 in test [1] was 200 to 1260 nM. The Ki in test [2] is 0.0398 to 0.316 nM.
On to `Cc1cccc(-c2[nH]cnc2-c2ccc3ncc(-c4ncc(CN5CCNCC5)s4)cc3c2)n1` [Compound 1055, 2-[6-[5-(6-methyl-2-pyridyl)-1H-imidazol-4-yl]-3-quinolyl]-5-(piperazin-1-ylmethyl)thiazole], for which, in test [1], the IC50 was less than 20 nM. Besides, the Ki in test [2] is 0.0398 to 0.316 nM.
With `Cc1cccc(-c2[nH]cnc2-c2ccc3ncc(-c4csc(C(=O)O[C@H]5CCN(C)C5)c4)cc3c2)n1` [Compound 755, [(3S)-1-methylpyrrolidin-3-yl] 4-[6-[5-(6-methyl-2-pyridyl)-1H-imidazol-4-yl]-3-quinolyl]thiophene-2-carboxylate], the IC50 in test [1] was less than 20 nM. In test [2], the Ki is 0.0398 to 0.316 nM.
For the compound `Cc1cccc(-c2n[nH]cc2-c2ccc3ncc(NCCN4C(C)CNCC4C)cc3n2)n1` (stereo not shown) [Compound 183, N-[2-(2,6-dimethylpiperazin-1-yl)ethyl]-6-[3-(6-methyl-2-pyridyl)-1H-pyrazol-4-yl]-1,5-naphthyridin-3-amine], the IC50 in test [1] was 200 to 1260 nM. Also, the Ki in test [2] was 0.0398 to 0.316 nM.
Taken in the same sequence, the figures for `Cc1cccc(-c2[nH]cnc2-c2ccc3ncc(-c4csc(C(=O)OCCNC5CNC5)c4)cc3c2)n1` [Compound 1235, 2-(azetidin-3-ylamino)ethyl 4-[6-[5-(6-methyl-2-pyridyl)-1H-imidazol-4-yl]-3-quinolyl]thiophene-2-carboxylate] were 25.1 to 158 nM and 0.0398 to 0.316 nM.
With `Cc1cccc(-c2[nH]cnc2-c2ccc3ncc(NC(=O)C4CC(N)C4)cc3c2)n1` (stereo not shown) [Compound 3, 3-amino-N-[6-[5-(6-methyl-2-pyridyl)-1H-imidazol-4-yl]-3-quinolyl]cyclobutanecarboxamide], the IC50 in test [1] is 200 to 1260 nM. In addition, the Ki in test [2] was 0.0398 to 0.316 nM.
Taken in the same sequence, the figures for `Cc1cccc(-c2[nH]ncc2-c2ccc3ncc(C(=O)OC4CCC5(CNC5)C4)cc3n2)n1` (stereo not shown) [Compound 62, 2-azaspiro[3.4]octan-6-yl 6-[5-(6-methyl-2-pyridyl)-1H-pyrazol-4-yl]-1,5-naphthyridine-3-carboxylate] were 200 to 1260 nM and 0.0398 to 0.316 nM.
For the compound `Cc1cccc(-c2[nH]cnc2-c2ccc3ncc(C4CCC(N)CC4)cc3c2)n1` (stereo not shown) [Compound 142, 4-[6-[5-(6-methyl-2-pyridyl)-1H-imidazol-4-yl]-3-quinolyl]cyclohexanamine], the IC50 in test [1] is 25.1 to 158 nM. For the same compound, the Ki in test [2] is 0.398 to 3.16 nM.
Taken in the same sequence, the figures for `Cc1cccc(-c2n[nH]cc2-c2ccc3ncc(-c4c[nH]nn4)cc3n2)n1` [Compound 355, 2-[3-(6-methyl-2-pyridyl)-1H-pyrazol-4-yl]-7-(1H-triazol-4-yl)-1,5-naphthyridine] were less than 20 nM and less than 0.0316 nM.
Taken in the same sequence, the figures for `Cc1cccc(-c2[nH]nnc2-c2ccc3ncc(N4CCNCC4)cc3c2)n1` [Compound 409, 6-[5-(6-methyl-2-pyridyl)-1H-triazol-4-yl]-3-piperazin-1-yl-quinoline] were 25.1 to 158 nM and 0.0398 to 0.316 nM.
As for `Cc1cccc(-c2n[nH]cc2-c2ccc3nccc(NCCN4CCOCC4)c3n2)n1` [Compound 823, 6-[3-(6-methyl-2-pyridyl)-1H-pyrazol-4-yl]-N-(2-morpholinoethyl)-1,5-naphthyridin-4-amine], in test [1], the IC50 is 200 to 1260 nM. In test [2], the Ki was 0.398 to 3.16 nM.
Regarding `Cc1cccc(-c2[nH]cnc2-c2ccc3ncc(C4=CC(C)(C)NC(C)(C)C4)cc3c2)n1` [Compound 117, 6-[5-(6-methyl-2-pyridyl)-1H-imidazol-4-yl]-3-(2,2,6,6-tetramethyl-1,3-dihydropyridin-4-yl)quinoline], in test [1], the IC50 is 25.1 to 158 nM. In test [2], the Ki was 0.398 to 3.16 nM.
Regarding `Cc1cccc(-c2n[nH]cc2-c2ccc3nccc(-c4cnoc4)c3n2)n1` [Compound 832, 4-[6-[3-(6-methyl-2-pyridyl)-1H-pyrazol-4-yl]-1,5-naphthyridin-4-yl]isoxazole], the IC50 in test [1] is 25.1 to 158 nM. Also, the Ki in test [2] was 0.0398 to 0.316 nM.
For `Cc1cccc(-c2[nH]ncc2-c2ccc3ncc(C(=O)OCCN4CCC[C@@H](N)C4)cc3c2)n1` [Compound 1241, 2-[(3R)-3-amino-1-piperidyl]ethyl 6-[5-(6-methyl-2-pyridyl)-1H-pyrazol-4-yl]quinoline-3-carboxylate], the IC50 in test [1] was 25.1 to 158 nM. For the same compound, in test [2], the Ki is 0.0398 to 0.316 nM.
As to `Cc1cccc(-c2[nH]cnc2-c2ccc3ncc(N4CCC(C(=O)OC5CNC5)CC4)cc3c2)n1` [Compound 705, azetidin-3-yl 1-[6-[5-(6-methyl-2-pyridyl)-1H-imidazol-4-yl]-3-quinolyl]piperidine-4-carboxylate], the IC50 in test [1] is 200 to 1260 nM. The Ki in test [2] was 0.0398 to 0.316 nM.
On to `Cc1nc(-c2n[nH]cc2-c2ccc3ncc(-c4nnc5n4CCNC5)cc3n2)ccc1F` [Compound 631, 2-[3-(5-fluoro-6-methyl-2-pyridyl)-1H-pyrazol-4-yl]-7-(5,6,7,8-tetrahydro-[1,2,4]triazolo[4,3-a]pyrazin-3-yl)-1,5-naphthyridine], for which, in test [1], the IC50 is 1580 to 10000 nM. For the same compound, the Ki in test [2] is 3.98 to 31.6 nM.
For `COC(=O)[C@@H]1CCCN(CCNc2cnc3ccc(-c4nc[nH]c4-c4cccc(C)n4)cc3c2)C1` [Compound 728, methyl (3R)-1-[2-[[6-[5-(6-methyl-2-pyridyl)-1H-imidazol-4-yl]-3-quinolyl]amino]ethyl]piperidine-3-carboxylate], the IC50 in test [1] is 25.1 to 158 nM. The Ki in test [2] was 0.0398 to 0.316 nM.
On to `Cc1cccc(-c2n[nH]cc2-c2ccc3ncc(N4C[C@@H](C)N(C)C[C@H]4C)cc3n2)n1` (racemic) [Compound 296, 2-[3-(6-methyl-2-pyridyl)-1H-pyrazol-4-yl]-7-[rac-(2R,5R)-2,4,5-trimethylpiperazin-1-yl]-1,5-naphthyridine], for which, in test [1], the IC50 is 25.1 to 158 nM. For the same compound, in test [2], the Ki was 0.0398 to 0.316 nM.
As for `Cc1cccc(-c2nnn(Cc3ccccc3)c2-c2ccc3ncc(N4CCNCC4)cc3n2)n1` [Compound 359, 2-(1-benzyl-4-(6-methylpyridin-2-yl)-1H-1,2,3-triazol-5-yl)-7-(piperazin-1-yl)-1,5-naphthyridine], in test [1], the IC50 was 25.1 to 158 nM. Further, in test [2], the Ki is 0.0398 to 0.316 nM.
In the case of `Cc1cccc(-c2[nH]cnc2-c2ccc3nccc(C(=O)OC[C@H]4CC[C@@H](N)CC4)c3c2)n1` [Compound 1077, (4-aminocyclohexyl)methyl 6-[5-(6-methyl-2-pyridyl)-1H-imidazol-4-yl]quinoline-4-carboxylate], in test [1], the IC50 is 25.1 to 158 nM. Moreover, the Ki in test [2] was 0.398 to 3.16 nM.
`Cc1nc(-c2n[nH]cc2-c2ccc3ncc(N4CCC(N5CCN(C)CC5)CC4)cc3n2)ccc1F` [Compound 539, 2-[3-(5-fluoro-6-methyl-2-pyridyl)-1H-pyrazol-4-yl]-7-[4-(4-methylpiperazin-1-yl)-1-piperidyl]-1,5-naphthyridine]: the IC50 in test [1] is 25.1 to 158 nM. Besides, the Ki in test [2] was less than 0.0316 nM.
Taken in the same sequence, the figures for `CNCCn1cc(-c2cnc3ccc(-c4c(-c5cccc(C)n5)nn5c4CNCC5)nc3c2)cn1` [Compound 64, N-methyl-2-[4-[6-[2-(6-methyl-2-pyridyl)-4,5,6,7-tetrahydropyrazolo[1,5-a]pyrazin-3-yl]-1,5-naphthyridin-3-yl]pyrazol-1-yl]ethanamine] were 200 to 1260 nM and 0.0398 to 0.316 nM.
